Measured values from patent US9926302B2, “Heteroaryl substituted heterocyclyl sulfones” (priority 2014, dated 2018).

What follows are compounds tested against T1, Human CaV2.2 channels (Homo sapiens, UniProt Q00975) (assay: Fluorescence assay for CaV2.2 channels using potassium depolarization to induce channel opening (FLIPR, Fluo 4)). Conditions: 3 μM test compound; alternative assay buffer 30 mM KCl (inactivated channel state); HEK293 cells stably expressing human CaV2.2.
T1 construct: expressed in transfected cells
Assay type: cell-based
In short: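 HEK293 cells stably co-expressing CaV2.2 with alpha2-delta and beta subunits plus Kir2.3, loaded with 2 μM Fluo 4 and pre-incubated 15 min at 25° C with compound in 1 mM or 30 mM KCl buffer (pH 7.4; latter promotes inactivated state). Depolarized by KCl addition; peak fluorescence amplitude normalized to baseline gives inhibition.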

T1 sequence (P54289 947-1103): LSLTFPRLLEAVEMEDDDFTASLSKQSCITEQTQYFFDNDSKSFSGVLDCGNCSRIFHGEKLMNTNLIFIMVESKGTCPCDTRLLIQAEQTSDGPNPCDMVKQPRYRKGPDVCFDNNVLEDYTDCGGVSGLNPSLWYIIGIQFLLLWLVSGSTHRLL
T1 sequence (P54289 25-946): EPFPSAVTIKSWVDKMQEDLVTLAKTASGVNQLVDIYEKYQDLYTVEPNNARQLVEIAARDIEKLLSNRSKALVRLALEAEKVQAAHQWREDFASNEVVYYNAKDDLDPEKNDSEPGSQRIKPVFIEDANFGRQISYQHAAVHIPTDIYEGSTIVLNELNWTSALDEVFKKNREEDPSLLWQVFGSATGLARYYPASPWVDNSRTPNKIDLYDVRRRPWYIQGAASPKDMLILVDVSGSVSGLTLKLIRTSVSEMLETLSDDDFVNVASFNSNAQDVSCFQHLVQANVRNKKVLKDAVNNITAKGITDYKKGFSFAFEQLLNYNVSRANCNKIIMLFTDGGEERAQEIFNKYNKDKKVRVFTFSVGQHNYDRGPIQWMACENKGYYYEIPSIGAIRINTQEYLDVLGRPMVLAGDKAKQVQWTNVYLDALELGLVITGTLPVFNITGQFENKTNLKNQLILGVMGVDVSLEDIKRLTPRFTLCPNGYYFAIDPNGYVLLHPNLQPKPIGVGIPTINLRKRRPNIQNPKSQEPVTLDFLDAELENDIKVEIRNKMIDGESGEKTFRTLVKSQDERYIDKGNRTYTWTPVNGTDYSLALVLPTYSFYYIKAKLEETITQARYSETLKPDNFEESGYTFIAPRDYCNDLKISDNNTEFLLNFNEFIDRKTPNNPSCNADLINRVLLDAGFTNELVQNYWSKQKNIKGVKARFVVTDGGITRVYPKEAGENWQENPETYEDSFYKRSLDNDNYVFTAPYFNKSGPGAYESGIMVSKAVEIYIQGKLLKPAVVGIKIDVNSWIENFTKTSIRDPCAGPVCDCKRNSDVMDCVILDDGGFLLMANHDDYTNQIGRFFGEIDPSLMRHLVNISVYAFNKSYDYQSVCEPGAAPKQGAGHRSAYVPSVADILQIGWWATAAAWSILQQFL
T1 sequence (P54284 whole entry, further chain): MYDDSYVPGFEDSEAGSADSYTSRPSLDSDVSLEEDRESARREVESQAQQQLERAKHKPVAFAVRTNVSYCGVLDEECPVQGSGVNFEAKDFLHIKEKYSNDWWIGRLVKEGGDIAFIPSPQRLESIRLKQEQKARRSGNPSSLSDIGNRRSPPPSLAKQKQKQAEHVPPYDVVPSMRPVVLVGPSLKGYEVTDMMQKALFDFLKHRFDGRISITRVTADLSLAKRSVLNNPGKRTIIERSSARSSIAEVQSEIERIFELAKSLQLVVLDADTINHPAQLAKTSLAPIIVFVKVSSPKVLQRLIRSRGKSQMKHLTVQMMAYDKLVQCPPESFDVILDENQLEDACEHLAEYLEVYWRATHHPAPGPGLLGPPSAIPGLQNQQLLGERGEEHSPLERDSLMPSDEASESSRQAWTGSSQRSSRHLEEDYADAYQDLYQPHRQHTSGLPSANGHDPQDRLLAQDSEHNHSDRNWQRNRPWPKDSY
T1 sequence (Q00975 whole entry): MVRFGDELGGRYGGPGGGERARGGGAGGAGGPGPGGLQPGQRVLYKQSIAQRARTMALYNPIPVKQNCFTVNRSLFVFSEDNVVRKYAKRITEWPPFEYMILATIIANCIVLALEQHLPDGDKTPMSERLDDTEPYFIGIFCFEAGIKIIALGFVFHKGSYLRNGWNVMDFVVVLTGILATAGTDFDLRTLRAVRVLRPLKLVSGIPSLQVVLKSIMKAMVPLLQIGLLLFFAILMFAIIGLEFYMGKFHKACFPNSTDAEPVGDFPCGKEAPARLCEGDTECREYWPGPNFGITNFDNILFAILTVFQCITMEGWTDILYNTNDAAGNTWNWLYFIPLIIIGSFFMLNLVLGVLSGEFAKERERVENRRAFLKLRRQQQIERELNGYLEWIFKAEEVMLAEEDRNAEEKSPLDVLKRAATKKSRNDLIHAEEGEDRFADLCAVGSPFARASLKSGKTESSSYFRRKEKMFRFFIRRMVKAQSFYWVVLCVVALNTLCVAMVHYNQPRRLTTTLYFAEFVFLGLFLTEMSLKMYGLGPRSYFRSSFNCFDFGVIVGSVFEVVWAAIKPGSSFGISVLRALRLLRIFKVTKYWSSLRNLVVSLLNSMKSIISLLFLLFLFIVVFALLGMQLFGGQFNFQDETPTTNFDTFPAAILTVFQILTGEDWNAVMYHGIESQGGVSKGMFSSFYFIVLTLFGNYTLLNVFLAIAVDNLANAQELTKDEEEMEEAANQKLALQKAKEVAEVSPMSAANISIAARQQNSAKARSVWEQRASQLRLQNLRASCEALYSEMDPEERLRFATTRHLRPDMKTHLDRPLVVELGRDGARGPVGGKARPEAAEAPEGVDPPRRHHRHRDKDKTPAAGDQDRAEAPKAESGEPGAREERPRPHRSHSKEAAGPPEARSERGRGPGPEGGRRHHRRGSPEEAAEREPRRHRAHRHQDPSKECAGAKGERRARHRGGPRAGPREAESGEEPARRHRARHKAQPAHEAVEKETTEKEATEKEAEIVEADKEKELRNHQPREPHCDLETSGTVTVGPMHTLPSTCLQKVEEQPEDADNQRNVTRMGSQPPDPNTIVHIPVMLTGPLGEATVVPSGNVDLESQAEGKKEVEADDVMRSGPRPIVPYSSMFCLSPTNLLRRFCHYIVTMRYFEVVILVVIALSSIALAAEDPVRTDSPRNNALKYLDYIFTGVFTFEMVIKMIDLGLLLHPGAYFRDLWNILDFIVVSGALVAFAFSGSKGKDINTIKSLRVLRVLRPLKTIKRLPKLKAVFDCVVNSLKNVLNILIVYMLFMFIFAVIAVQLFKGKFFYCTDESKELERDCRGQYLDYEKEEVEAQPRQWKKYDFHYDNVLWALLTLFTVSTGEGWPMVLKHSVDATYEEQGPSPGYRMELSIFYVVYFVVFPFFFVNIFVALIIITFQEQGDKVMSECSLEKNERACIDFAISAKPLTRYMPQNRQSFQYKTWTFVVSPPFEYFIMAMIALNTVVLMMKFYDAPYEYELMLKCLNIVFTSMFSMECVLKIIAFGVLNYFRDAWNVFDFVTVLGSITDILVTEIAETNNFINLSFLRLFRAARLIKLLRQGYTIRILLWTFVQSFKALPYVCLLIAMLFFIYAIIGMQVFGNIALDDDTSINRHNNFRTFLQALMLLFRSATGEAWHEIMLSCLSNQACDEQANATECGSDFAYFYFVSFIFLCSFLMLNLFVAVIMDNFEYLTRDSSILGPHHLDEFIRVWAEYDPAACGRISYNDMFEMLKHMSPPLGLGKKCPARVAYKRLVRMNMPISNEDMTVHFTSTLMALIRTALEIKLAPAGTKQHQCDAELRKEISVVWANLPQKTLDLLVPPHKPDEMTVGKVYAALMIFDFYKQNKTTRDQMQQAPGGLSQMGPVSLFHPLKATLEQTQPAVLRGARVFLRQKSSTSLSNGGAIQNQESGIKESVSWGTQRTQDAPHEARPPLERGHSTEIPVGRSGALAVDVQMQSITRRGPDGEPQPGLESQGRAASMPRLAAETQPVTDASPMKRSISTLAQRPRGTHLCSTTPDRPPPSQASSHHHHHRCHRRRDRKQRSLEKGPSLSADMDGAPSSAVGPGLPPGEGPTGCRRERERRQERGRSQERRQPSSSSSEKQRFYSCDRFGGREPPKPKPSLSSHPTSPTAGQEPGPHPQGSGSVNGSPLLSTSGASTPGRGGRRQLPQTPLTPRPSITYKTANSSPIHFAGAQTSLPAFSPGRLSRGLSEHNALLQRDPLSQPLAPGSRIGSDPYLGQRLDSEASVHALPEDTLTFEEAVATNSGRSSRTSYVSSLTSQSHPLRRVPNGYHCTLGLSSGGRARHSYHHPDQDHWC

| SMILES | Activity Category: %-Inhib (CaV2.2) @3 μM @30 mM KCl |
| --- | --- |
| C[S+]([O-])c1cc(C(F)(F)F)cnc1C1CC(C)(S(=O)(=O)c2cccc(C(F)(F)F)c2)CCO1 (stereo not shown) [SC-230, 3-(Methylsulfinyl)-2-[4-methyl-4-[[3-(trifluoromethyl)phenyl]sulfonyl]-tetrahydro-pyran-2-yl]-5-(trifluoromethyl)-pyridine] | B (%-Inhibition >75% up to ≤95%) |
| CC1(S(=O)(=O)c2cccc(OC(F)F)c2)CCOC(c2ncc(S(C)(=O)=O)cc2Cl)C1 (stereo not shown) [SC-437, 3-Chloro-2-[4-[[3-(difluoro-methoxy)-phenyl]sulfonyl]-4-methyl-tetrahydro-pyran-2-yl]-5-methylsulfonyl-pyridine] | B (%-Inhibition >75% up to ≤95%) |
| C[S+]([O-])c1cc(C(F)(F)F)cnc1C1CC(C)(S(=O)(=O)c2cccc(C(F)(F)F)c2)CCO1 (stereo not shown) [SC-231, 3-(Methylsulfinyl)-2-[4-methyl-4-[[3-(trifluoromethyl)phenyl]sulfonyl]-tetrahydro-pyran-2-yl]-5-(trifluoromethyl)-pyridine] | B (%-Inhibition >75% up to ≤95%) |
| CCC1(S(=O)(=O)c2cccc(C(F)(F)F)c2)CCOC(c2ccc(C)nc2C)C1 (stereo not shown) [SC-318, 3-[4-Ethyl-4-[[3-(trifluoromethyl)phenyl]sulfonyl]-tetrahydro-pyran-2-yl]-2,6-dimethyl-pyridine] | B (%-Inhibition >75% up to ≤95%) |
| CC1(S(=O)(=O)c2cccc(C(F)(F)F)c2)CCOC(c2ncc(C(F)(F)F)cc2S(C)(=O)=O)C1 (stereo not shown) [SC-356, 3-Methylsulfonyl-2-[4-methyl-4-[[3-(trifluoromethyl)phenyl]sulfonyl]-tetrahydro-pyran-2-yl]-5-(trifluoromethyl)-pyridine] | A (%-Inhibition >95%) |
| CN(C)c1ccc(C2CC(C)(S(=O)(=O)c3cccc(C(F)(F)F)c3)CCO2)cn1 (stereo not shown) [SC-331, Dimethyl-[5-[4-methyl-4-[[3-(trifluoromethyl)phenyl]sulfonyl]-tetrahydro-pyran-2-yl]-pyridin-2-yl]-amine] | A (%-Inhibition >95%) |
| CC1(S(=O)(=O)c2cccc(C(F)(F)F)c2)CCOC(c2nnc(C(F)(F)F)o2)C1 (single isomer, unassigned) [SC-122, 2-[4-Methyl-4-[[3-(trifluoromethyl)phenyl]sulfonyl]-tetrahydro-pyran-2-yl]-5-(trifluoromethyl)-[1,3,4]oxadiazole] | B (%-Inhibition >75% up to ≤95%) |
| Cc1ccc(OCC2CC(C)(S(=O)(=O)c3cccc(C(F)(F)F)c3)CCO2)cn1 (single isomer, unassigned) [SC-112, 2-Methyl-5-[[4-methyl-4-[[3-(trifluoromethyl)phenyl]sulfonyl]-tetrahydro-pyran-2-yl]-methoxy]-pyridine] | C (%-Inhibition >40% up to ≤75%) |
| CC1(S(=O)(=O)c2cc(F)cc(C(F)(F)F)c2)CCOC(c2ncc(S(C)(=O)=O)cc2Cl)C1 (stereo not shown) [SC-214, 3-Chloro-2-[4-[[3-fluoro-5-(trifluoromethyl)-phenyl]sulfonyl]-4-methyl-tetrahydro-pyran-2-yl]-5-methylsulfonyl-pyridine] | C (%-Inhibition >40% up to ≤75%) |
| CCC1(S(=O)(=O)c2cccc(C(F)(F)F)c2)CCOC(c2ccc(C(F)(F)F)cn2)C1 (stereo not shown) [SC-107, 2-[4-Ethyl-4-[[3-(trifluoromethyl)phenyl]sulfonyl]-tetrahydro-pyran-2-yl]-5-(trifluoromethyl)-pyridine] | A (%-Inhibition >95%) |

Same assay, conditions: HEK293, 3 μM test compound; alternative assay buffer 30 mM KCl (inactivated channel state); HEK293 cells stably expressing human CaV2.2; read-out: Activity Category: %-Inhib (CaV2.2) @3 μM @30 mM KCl

| SMILES | inhibition at 3 µM |
| --- | --- |
| CC1(S(=O)(=O)c2cccc(C(F)(F)F)c2)CCOC(COc2cnc(C3CC3)cn2)C1 (single isomer, unassigned) [SC-132, 2-Cyclopropyl-5-[[4-methyl-4-[[3-(trifluoromethyl)phenyl]sulfonyl]-tetrahydro-pyran-2-yl]-methoxy]-pyrazine] | 75 to 95% |
| COc1cnc(C2CC(C)(S(=O)(=O)c3cccc(C(F)(F)F)c3)CCO2)cn1 (stereo not shown) [SC-415, 2-Methoxy-5-[4-methyl-4-[[3-(trifluoromethyl)phenyl]sulfonyl]-tetrahydro-pyran-2-yl]-pyrazine] | 75 to 95% |
| CC1(S(=O)(=O)c2cccc(C(F)(F)F)c2)CCOC(c2ccc(C3CC3)nc2)C1 (stereo not shown) [SC-346, 2-Cyclopropyl-5-[4-methyl-4-[[3-(trifluoromethyl)phenyl]sulfonyl]-tetrahydro-pyran-2-yl]-pyridine] | 75 to 95% |
| COc1ncc(C2CC(C)(S(=O)(=O)c3cccc(C(F)(F)F)c3)CCO2)cc1F (stereo not shown) [SC-255, 3-Fluoro-2-methoxy-5-[4-methyl-4-[[3-(trifluoromethyl)phenyl]sulfonyl]-tetrahydro-pyran-2-yl]-pyridine] | > 95% |
| CC1(S(=O)(=O)c2cccc(OC(F)(F)F)c2)CCOC(c2ncc(C(F)(F)F)cc2S(C)(=O)=O)C1 (stereo not shown) [SC-220, 3-Methylsulfonyl-2-[4-methyl-4-[[3-(trifluoromethyloxy)-phenyl]sulfonyl]-tetrahydro-pyran-2-yl]-5-(trifluoromethyl)-pyridine] | > 95% |
| CC1(S(=O)(=O)c2cccc(C(F)F)c2)CCOC(c2ncc(S(C)(=O)=O)cc2Cl)C1 (stereo not shown) [SC-265, 3-Chloro-2-[4-[[3-(difluoro-methyl)-phenyl]sulfonyl]-4-methyl-tetrahydro-pyran-2-yl]-5-methylsulfonyl-pyridine] | 40 to 75% |
| CC(C)Oc1ccc(C2CC(S(=O)(=O)c3cccc(C(F)(F)F)c3)CCO2)cn1 (stereo not shown) [SC-339, 2-Isopropoxy-5-[4-[[3-(trifluoromethyl)phenyl]sulfonyl]-tetrahydro-pyran-2-yl]-pyridine] | > 95% |
| CC1(S(=O)(=O)c2cccc(C(F)(F)F)c2)CCOC(c2ccc(-n3cncn3)nc2)C1 (stereo not shown) [SC-402, 5-[4-Methyl-4-[[3-(trifluoromethyl)phenyl]sulfonyl]-tetrahydro-pyran-2-yl]-2-(1H-[1,2,4]triazol-1-yl)-pyridine] | 75 to 95% |
| CC1(S(=O)(=O)c2cccc(C(F)(F)F)c2)CCOC(c2cnc(C3CC3)cn2)C1 (racemic) [SC-328, 2-Cyclopropyl-5-[4-methyl-4-[[3-(trifluoromethyl)phenyl]sulfonyl]-tetrahydro-pyran-2-yl]-pyrazine] | > 95% |
| CC1(S(=O)(=O)c2cccc(C(F)(F)F)c2)CCOC(c2ncc(C(F)(F)F)cc2Cl)C1 (racemic) [SC-340, 3-Chloro-2-(4-methyl-4-((3-(trifluoromethyl)phenyl)sulfonyl)tetrahydro-2H-pyran-2-yl)-5-(trifluoromethyl)pyridine] | > 95% |
| CC1(S(=O)(=O)c2cccc(C(F)(F)F)c2)CCOC(c2ncc(Cl)cc2S(C)(=O)=O)C1 (stereo not shown) [SC-226, 5-Chloro-3-methylsulfonyl-2-[4-methyl-4-[[3-(trifluoromethyl)phenyl]sulfonyl]-tetrahydro-pyran-2-yl]-pyridine] | 75 to 95% |
| O=S(=O)(c1cccc(C(F)(F)F)c1)C1CCOC(c2ccc(C(F)(F)F)nc2)C1 (stereo not shown) [SC-342, 2-(Trifluoromethyl)-5-[4-[[3-(trifluoromethyl)phenyl]sulfonyl]-tetrahydro-pyran-2-yl]-pyridine] | 75 to 95% |
| CC1(S(=O)(=O)c2cccc(C(F)(F)F)c2)CCOC(c2nnc(C3CC3)o2)C1 (stereo not shown) [SC-127, 2-Cyclopropyl-5-[4-methyl-4-[[3-(trifluoromethyl)phenyl]sulfonyl]-tetrahydro-pyran-2-yl]-[1,3,4]oxadiazole] | 40 to 75% |
| CCC1(S(=O)(=O)c2cccc(C(F)(F)F)c2)CCOC(c2cccc(C)n2)C1 (stereo not shown) [SC-324, 2-[4-Ethyl-4-[[3-(trifluoromethyl)phenyl]sulfonyl]-tetrahydro-pyran-2-yl]-6-methyl-pyridine] | 75 to 95% |
| COc1cc(OC)c(C2CC(C)(S(=O)(=O)c3cccc(C(F)(F)F)c3)CCO2)cn1 (stereo not shown) [SC-245, 2,4-Dimethoxy-5-[4-methyl-4-[[3-(trifluoromethyl)phenyl]sulfonyl]-tetrahydro-pyran-2-yl]-pyridine] | 75 to 95% |
| CC1(S(=O)(=O)c2cccc(C(F)(F)F)c2)CCOC(c2noc(C3CC3)n2)C1 (single isomer, unassigned) [SC-110, 5-Cyclopropyl-3-[4-methyl-4-[[3-(trifluoromethyl)phenyl]sulfonyl]-tetrahydro-pyran-2-yl]-[1,2,4]oxadiazole] | 75 to 95% |
| Cc1cc(S(C)(=O)=O)cnc1C1CC(C)(S(=O)(=O)c2cc(F)cc(C(F)F)c2)CCO1 (stereo not shown) [SC-442, 2-[4-[[3-(Difluoro-methyl)-5-fluoro-phenyl]sulfonyl]-4-methyl-tetrahydro-pyran-2-yl]-3-methyl-5-methylsulfonyl-pyridine] | 40 to 75% |
| CC1(S(=O)(=O)c2cccc(C(F)(F)F)c2)CCOC(c2ncc(C(F)(F)F)cc2S(C)(=O)=O)C1 (stereo not shown) [SC-355, 3-Methylsulfonyl-2-[4-methyl-4-[[3-(trifluoromethyl)phenyl]sulfonyl]-tetrahydro-pyran-2-yl]-5-(trifluoromethyl)-pyridine] | 75 to 95% |
| CC(C)Oc1ccc(C2CC(C)(S(=O)(=O)c3cccc(C(F)(F)F)c3)CCO2)cn1 (racemic) [SC-302, 2-Isopropoxy-5-[4-methyl-4-[[3-(trifluoromethyl)phenyl]sulfonyl]-tetrahydro-pyran-2-yl]-pyridine] | > 95% |
| COc1cc(F)c(C2CC(C)(S(=O)(=O)c3cccc(C(F)(F)F)c3)CCO2)cn1 (stereo not shown) [SC-257, 4-Fluoro-2-methoxy-5-[4-methyl-4-[[3-(trifluoromethyl)phenyl]sulfonyl]-tetrahydro-pyran-2-yl]-pyridine] | 75 to 95% |
| CC1(S(=O)(=O)c2cccc(C(F)(F)F)c2)CCOC(c2ccc(C(F)(F)F)cn2)C1 (stereo not shown) [SC-309, 2-[4-Methyl-4-[[3-(trifluoromethyl)phenyl]sulfonyl]-tetrahydro-pyran-2-yl]-5-(trifluoromethyl)-pyridine] | > 95% |
